According to PubChem BioAssay AID1053192 (Broad Institute, 2014):
Records with an inconclusive call do not appear. Activity calls are given as the source filed them.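 The calls were made as follows: active = cytotoxic compounds whose falling curve has a midpoint dose at most twice the top valid dose; inconclusive = flat fit losing 30 to 70% signal, or poor fit; inactive = the rest.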

Test system: HepG2 viability, CellTiter-Glo ATP luminescence, 72 h
Experiment: viability loss in HepG2 hepatoma cells – cell-based, CellTiter-Glo luminescence, 72 h, dry powder, cytotoxicity control, dose response (AID 1053192)
Settings: not given

Q: With `OCc1ccc(-c2nn(Cc3ccccc3)c3ccccc23)o1` as the compound, how does the AC50 read?
A: 8.07 µM

Test system: not listed separately
Experiment: as above
Settings: HepG2 viability, CellTiter-Glo ATP luminescence, 72 h; at 50 µM (top of the series)

Q: With `Cc1cc(C)c(S(=O)(=O)NCCn2c(C)cc3ccccc32)c(C)c1` as the compound, how does the activity change, negative = cytotoxicity read?
A: 18.2% (inactive)

Q: With `Cc1cccc(NC(=O)NCc2ccc3c(c2)cc(C)n3C)c1` as the compound, how does the activity change, negative = cytotoxicity read?
A: -2.27% (inactive)

Q: For `Cc1ccc(CSc2nc3[nH]ncc3c(=O)[nH]2)cc1`, which activity change, negative = cytotoxicity is on record?
A: -34.4% (inactive)

Q: With `Cc1cc2cc(CNC(=O)Nc3ccc(Cl)c(Cl)c3)ccc2n1C` as the compound, how does the activity change, negative = cytotoxicity read?
A: -3.46% (inactive)

Q: With `O=C(O)C1CCN(c2nc(-c3ccccc3)c3cc(Br)ccc3n2)CC1` as the compound, how does the activity change, negative = cytotoxicity read?
A: 1.7% (inactive)

Q: With `CCc1cccc2c1NC1(CCCC1)CC2C` (configuration not stated) as the compound, how does the activity change, negative = cytotoxicity read?
A: -13.5% (inactive)

Q: With `Cc1ccc(S(=O)(=O)NCc2ccc3c(c2)cc(C)n3C)cc1` as the compound, how does the activity change, negative = cytotoxicity read?
A: -22.2% (inactive)

Q: Which activity change, negative = cytotoxicity does the source give for `CNc1ccccc1C(C)(C)c1cc(-c2cccc(OC)c2)no1` here?
A: -1.6% (inactive)

Q: With `COc1ccc(Nc2ccccc2N)cc1` as the compound, how does the activity change, negative = cytotoxicity read?
A: 4.91% (inactive)

Q: Which activity change, negative = cytotoxicity does the source give for `O=C(c1c(F)cccc1F)N(Cc1ccccc1)Cc1ccccc1` here?
A: -4.81% (inactive)

Q: For `Cc1cc2ccccc2n1CCNC(=O)COc1ccc2ccccc2c1`, which activity change, negative = cytotoxicity is on record?
A: 21.7% (inactive)
